# Reference: patent US12385061B2, “Compositions and methods for chimeric ligand receptor (CLR)-mediated conditional gene expression” (Poseida Therapeutics, Inc., priority 2017, dated 2025)
# Like-named read-outs stand apart in the source and are kept apart here.
# Columns and labels:
# [1] = system: cells; assay: Amount of AP1903 needed in vitro for effective signaling of cells; assay type: cell-based; details: converted with 1600 Da MW
# Protocol: The fixed dose of AP1903 for injection used, for example, may be 0.4 mg/kg intravenously infused over 2 hours. The amount of AP1903 needed in vitro for effective signaling of cells is 10-100 nM (1600 Da MW). This equates to 16-160 μg/L or {tilde over ( )}0.016-1.6 μg/kg (1.6-160 μg/kg). Doses up to 1 mg/kg were well-tolerated in the Phase I study of AP1903 described above. Therefore, 0.4 mg/kg may be a safe and effective dose of AP1903 for this Phase I study in combination with the therapeutic cells.
# [2] = cited from earlier work
# [3] = system: cells; details: cited from earlier work
structure (smiles),measurement,setting,value
"CC[C@H](C(=O)N1CCCC[C@H]1C(=O)O[C@H](CCc1ccc(OC)c(OC)c1)c1cccc(OCC(=O)NCCNC(=O)COc2cccc([C@@H](CCc3ccc(OC)c(OC)c3)OC(=O)[C@@H]3CCCCN3C(=O)[C@@H](CC)c3cc(OC)c(OC)c(OC)c3)c2)c1)c1cc(OC)c(OC)c(OC)c1 (relative stereo) [AP1903, 2-Piperidinecarboxylic acid, 1-[(2S)-1-oxo-2-(3,4,5-trimethoxyphenyl)butyl]-, 1,2-ethanediylbis[imino(2-oxo-2,1-ethanediyl)oxy-3,1-phenylene[(l R)-3-(3,4-dimethoxyphenyl)propylidene]]ester, [2S-[1(R*),2R*[S*[S*[1(R*),2R*]]]]]-(9Cl)]","amount needed in vitro for effective signaling of cells, converted",[1],16 to 160 µg/L
same,pharmacokinetic profile,[2]; 0.01-1.0 mg/kg IV over 2 hours,favorable pharmacokinetic profile
same,plasma levels in relation to dose,[2]; 0.01-1.0 mg/kg IV over 2 hours,directly proportional to dose
same,plasma level as % of maximal concentration,[2]; 0.5 hours post-dose,approximately 18%
same,plasma level as % of maximal concentration,[2]; 2 hours post-dose,~7%
same,plasma level as % of maximal concentration,[2]; 10 hours post-dose,~1%
same,doses well-tolerated,[2]; Phase I study,up to 1 mg/kg
same,safety and tolerability,[2]; at all dose levels (0.01-1.0 mg/kg),safe and well tolerated
same,mean Cmax,"[2]; over the 0.01-1.0 mg/kg dose range, single doses infused IV over 2 hours, 24 healthy volunteers",10 to 1275 ng/mL
same,amount needed in vitro for effective signaling of cells,[3],10 to 100 nM
